Reference: the supplement of paper PMC10307832

What was measured:
Assay in all cases: relative viability (nuclei count vs DMSO), 5 days (fraction); higher = more cells survive
Cediranib + Navitoclax = compound: COc1cc2c(Oc3ccc4[nH]c(C)cc4c3F)ncnc2cc1OCCCN1CCCC1 [Cediranib] + CC1(C)CCC(c2ccc(Cl)cc2)=C(CN2CCN(c3ccc(C(=O)NS(=O)(=O)c4ccc(N[C@H](CCN5CCOCC5)CSc5ccccc5)c(S(=O)(=O)C(F)(F)F)c4)cc3)CC2)C1 [Navitoclax] (partner 0.5 µM)
How it was run: (§1)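 Medians of duplicate plates are given as relative viability. That measure is the nuclei count in treated wells divided by the count in vehicle wells. Counts were taken on 4× images of lung cancer cell lines in 1536-well plates, 5 days after pin-tool dosing the day after seeding with one drug alone or a fixed anchor-drug dose plus five library-drug doses (not always all listed) in √10 steps.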

[1] = compound: O=C(C[C@H]1NCCC[C@@H]1O)Cn1cnc2cc(Br)c(Cl)cc2c1=O (racemic) [Halofuginone] + C[C@@H](Oc1cc(-c2cnn(C3CCNCC3)c2)cnc1N)c1c(Cl)ccc(F)c1Cl [Crizotinib] (partner 1 µM)
How it was run: as §1

Cediranib + Trametinib = compound: COc1cc2c(Oc3ccc4[nH]c(C)cc4c3F)ncnc2cc1OCCCN1CCCC1 [Cediranib] + CC(=O)Nc1cccc(-n2c(=O)n(C3CC3)c(=O)c3c(Nc4ccc(I)cc4F)n(C)c(=O)c(C)c32)c1 [Trametinib] (partner 0.02 µM)
How it was run: as §1

Cediranib + Olaparib = compound: COc1cc2c(Oc3ccc4[nH]c(C)cc4c3F)ncnc2cc1OCCCN1CCCC1 [Cediranib] + O=C(c1cc(Cc2n[nH]c(=O)c3ccccc23)ccc1F)N1CCN(C(=O)C2CC2)CC1 [Olaparib] (partner 8 µM)
How it was run: as §1

## UMC-11
Cediranib + Navitoclax; first compound 0.04 µM
  relative viability: 0.328
Cediranib + Navitoclax; first compound 0.1265 µM
  relative viability: 0.293
Cediranib + Navitoclax; first compound 0.4 µM
  relative viability: 0.322
Cediranib + Navitoclax; first compound 1.265 µM
  relative viability: 0.321
Cediranib + Navitoclax; first compound 4 µM
  relative viability: 0.359
[1]; first compound 0.001 µM
  relative viability: 0.66
[1]; first compound 0.003162 µM
  relative viability: 0.558
[1]; first compound 0.01 µM
  relative viability: 0.575
[1]; first compound 0.03162 µM
  relative viability: 0.534
[1]; first compound 0.1 µM
  relative viability: 0.215
Cediranib + Trametinib; first compound 0.04 µM
  relative viability: 0.684
Cediranib + Trametinib; first compound 0.1265 µM
  relative viability: 0.234
Cediranib + Trametinib; first compound 0.4 µM
  relative viability: 0.586
Cediranib + Trametinib; first compound 1.265 µM
  relative viability: 0.394
Cediranib + Trametinib; first compound 4 µM
  relative viability: 0.721
Cediranib + Olaparib; first compound 0.04 µM
  relative viability: 0.373
Cediranib + Olaparib; first compound 0.1265 µM
  relative viability: 0.335
Cediranib + Olaparib; first compound 0.4 µM
  relative viability: 0.371
Cediranib + Olaparib; first compound 1.265 µM
  relative viability: 0.388
Cediranib + Olaparib; first compound 4 µM
  relative viability: 0.406
